How the values were obtained:
Acetylcholinesterase = Acetylcholinesterase (Homo sapiens, UniProt P22303); assay type: functional
Adenosine receptor A1 = biological target: T1, Adenosine receptor A1 (Homo sapiens, UniProt P30542)
T1 sequence (P30542 whole entry): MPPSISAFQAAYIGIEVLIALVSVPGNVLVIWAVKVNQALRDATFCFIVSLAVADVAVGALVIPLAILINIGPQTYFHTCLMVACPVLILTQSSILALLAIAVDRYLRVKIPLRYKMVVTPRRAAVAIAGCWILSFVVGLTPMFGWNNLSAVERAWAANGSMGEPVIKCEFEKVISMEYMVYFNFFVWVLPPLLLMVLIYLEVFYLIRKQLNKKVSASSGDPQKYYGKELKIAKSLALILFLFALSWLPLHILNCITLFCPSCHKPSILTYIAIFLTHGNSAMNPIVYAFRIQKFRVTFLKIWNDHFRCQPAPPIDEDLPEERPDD

Adenosine receptor A3 = biological target: T2, Adenosine receptor A3 (Homo sapiens, UniProt P0DMS8)
T2 sequence (P0DMS8 whole entry): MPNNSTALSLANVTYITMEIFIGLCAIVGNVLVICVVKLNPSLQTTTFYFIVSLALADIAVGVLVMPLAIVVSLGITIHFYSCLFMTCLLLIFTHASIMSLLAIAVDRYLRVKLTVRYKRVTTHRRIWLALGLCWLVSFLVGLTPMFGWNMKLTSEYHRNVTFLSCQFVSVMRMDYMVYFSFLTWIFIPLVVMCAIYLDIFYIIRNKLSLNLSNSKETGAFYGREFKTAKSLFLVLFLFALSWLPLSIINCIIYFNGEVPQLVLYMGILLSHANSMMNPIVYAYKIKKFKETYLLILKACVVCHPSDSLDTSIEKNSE

Estrogen receptor = biological target: T3, Estrogen receptor (Homo sapiens, UniProt P03372)
T3 sequence (P03372 whole entry): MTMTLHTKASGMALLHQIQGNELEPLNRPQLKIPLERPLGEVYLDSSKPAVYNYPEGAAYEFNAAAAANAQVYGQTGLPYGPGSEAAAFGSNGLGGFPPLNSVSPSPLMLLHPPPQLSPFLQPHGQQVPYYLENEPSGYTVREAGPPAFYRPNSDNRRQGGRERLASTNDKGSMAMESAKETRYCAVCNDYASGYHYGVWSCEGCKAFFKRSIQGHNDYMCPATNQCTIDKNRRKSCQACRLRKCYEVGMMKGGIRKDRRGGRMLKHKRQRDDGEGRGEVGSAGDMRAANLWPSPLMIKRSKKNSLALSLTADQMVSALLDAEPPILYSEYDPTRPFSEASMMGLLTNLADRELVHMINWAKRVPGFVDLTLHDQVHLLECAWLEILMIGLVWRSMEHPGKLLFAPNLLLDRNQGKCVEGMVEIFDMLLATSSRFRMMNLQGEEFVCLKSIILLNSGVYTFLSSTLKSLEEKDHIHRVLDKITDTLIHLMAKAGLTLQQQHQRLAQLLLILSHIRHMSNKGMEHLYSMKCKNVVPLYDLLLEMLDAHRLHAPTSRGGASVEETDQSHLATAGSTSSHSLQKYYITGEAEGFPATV

Prothrombin = Prothrombin (Homo sapiens, UniProt P00734); assay type: functional
[1] = biological target: Vascular endothelial growth factor receptor 2 (Homo sapiens, UniProt P35968); assay type: functional
Chain of Vascular endothelial growth factor receptor 2 (P35968 whole entry): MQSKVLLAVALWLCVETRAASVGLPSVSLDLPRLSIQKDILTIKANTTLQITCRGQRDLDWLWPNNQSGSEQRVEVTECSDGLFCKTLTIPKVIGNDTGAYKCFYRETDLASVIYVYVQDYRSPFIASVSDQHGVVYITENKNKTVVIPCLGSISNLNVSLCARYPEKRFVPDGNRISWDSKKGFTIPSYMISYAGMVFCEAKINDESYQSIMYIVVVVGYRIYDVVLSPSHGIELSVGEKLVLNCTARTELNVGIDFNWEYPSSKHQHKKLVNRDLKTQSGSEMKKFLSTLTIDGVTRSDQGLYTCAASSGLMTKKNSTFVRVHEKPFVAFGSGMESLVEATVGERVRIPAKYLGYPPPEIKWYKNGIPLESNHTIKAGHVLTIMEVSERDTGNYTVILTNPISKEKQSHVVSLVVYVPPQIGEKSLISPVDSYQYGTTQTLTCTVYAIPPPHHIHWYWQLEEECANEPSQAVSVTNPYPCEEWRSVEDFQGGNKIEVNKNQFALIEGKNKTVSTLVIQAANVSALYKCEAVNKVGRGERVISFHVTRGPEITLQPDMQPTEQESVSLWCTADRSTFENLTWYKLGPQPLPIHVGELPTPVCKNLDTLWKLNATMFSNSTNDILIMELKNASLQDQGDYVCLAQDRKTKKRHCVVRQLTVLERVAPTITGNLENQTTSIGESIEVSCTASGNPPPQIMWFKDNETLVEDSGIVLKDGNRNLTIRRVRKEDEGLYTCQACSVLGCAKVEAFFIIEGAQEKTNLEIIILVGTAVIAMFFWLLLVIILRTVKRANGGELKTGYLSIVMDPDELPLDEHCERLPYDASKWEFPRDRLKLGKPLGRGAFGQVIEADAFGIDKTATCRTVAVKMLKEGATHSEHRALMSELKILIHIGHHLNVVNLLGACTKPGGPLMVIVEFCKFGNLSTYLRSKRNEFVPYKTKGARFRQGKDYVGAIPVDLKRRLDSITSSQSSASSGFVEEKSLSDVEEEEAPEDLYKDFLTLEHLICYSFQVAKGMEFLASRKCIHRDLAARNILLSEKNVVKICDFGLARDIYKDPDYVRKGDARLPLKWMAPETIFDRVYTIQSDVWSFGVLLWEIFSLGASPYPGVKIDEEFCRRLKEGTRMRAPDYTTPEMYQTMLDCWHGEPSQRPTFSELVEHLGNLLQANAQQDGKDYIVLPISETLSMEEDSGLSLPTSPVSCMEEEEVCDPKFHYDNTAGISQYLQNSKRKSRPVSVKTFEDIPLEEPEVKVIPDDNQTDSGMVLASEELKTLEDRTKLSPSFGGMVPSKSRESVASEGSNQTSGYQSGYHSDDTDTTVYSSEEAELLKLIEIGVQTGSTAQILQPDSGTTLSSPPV

[2] = biological target: cGMP-inhibited 3',5'-cyclic phosphodiesterase 3A (Homo sapiens, UniProt Q14432); assay type: functional
[3] = biological target: 3',5'-cyclic-AMP phosphodiesterase 4A (Homo sapiens, UniProt P27815); assay type: functional
Chain of 3',5'-cyclic-AMP phosphodiesterase 4A (P27815 whole entry): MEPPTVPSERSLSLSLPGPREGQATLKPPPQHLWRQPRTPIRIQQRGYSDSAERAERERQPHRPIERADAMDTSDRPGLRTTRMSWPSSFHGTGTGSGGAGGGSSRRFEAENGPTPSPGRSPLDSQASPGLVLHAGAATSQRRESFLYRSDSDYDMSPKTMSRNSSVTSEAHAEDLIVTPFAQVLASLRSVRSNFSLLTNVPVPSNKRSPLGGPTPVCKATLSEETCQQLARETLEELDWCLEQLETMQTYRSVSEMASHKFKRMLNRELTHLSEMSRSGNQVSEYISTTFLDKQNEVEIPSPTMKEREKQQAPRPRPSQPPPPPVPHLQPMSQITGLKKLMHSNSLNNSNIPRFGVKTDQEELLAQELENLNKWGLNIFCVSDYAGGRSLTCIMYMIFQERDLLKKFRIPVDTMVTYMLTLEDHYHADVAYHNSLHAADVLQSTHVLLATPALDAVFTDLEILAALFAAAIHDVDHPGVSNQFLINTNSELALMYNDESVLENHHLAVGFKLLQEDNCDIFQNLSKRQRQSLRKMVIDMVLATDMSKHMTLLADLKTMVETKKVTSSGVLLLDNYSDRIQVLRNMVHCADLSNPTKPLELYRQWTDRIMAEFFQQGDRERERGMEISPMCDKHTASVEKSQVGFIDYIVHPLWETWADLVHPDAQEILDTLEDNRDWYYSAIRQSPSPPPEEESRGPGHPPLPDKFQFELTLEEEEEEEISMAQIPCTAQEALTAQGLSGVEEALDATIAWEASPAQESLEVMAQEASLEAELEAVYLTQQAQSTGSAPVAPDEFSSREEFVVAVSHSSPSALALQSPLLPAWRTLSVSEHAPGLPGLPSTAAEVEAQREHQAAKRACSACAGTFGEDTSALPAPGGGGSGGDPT

Progesterone receptor = biological target: T4, Progesterone receptor (Homo sapiens, UniProt P06401)
T4 sequence (P06401 whole entry): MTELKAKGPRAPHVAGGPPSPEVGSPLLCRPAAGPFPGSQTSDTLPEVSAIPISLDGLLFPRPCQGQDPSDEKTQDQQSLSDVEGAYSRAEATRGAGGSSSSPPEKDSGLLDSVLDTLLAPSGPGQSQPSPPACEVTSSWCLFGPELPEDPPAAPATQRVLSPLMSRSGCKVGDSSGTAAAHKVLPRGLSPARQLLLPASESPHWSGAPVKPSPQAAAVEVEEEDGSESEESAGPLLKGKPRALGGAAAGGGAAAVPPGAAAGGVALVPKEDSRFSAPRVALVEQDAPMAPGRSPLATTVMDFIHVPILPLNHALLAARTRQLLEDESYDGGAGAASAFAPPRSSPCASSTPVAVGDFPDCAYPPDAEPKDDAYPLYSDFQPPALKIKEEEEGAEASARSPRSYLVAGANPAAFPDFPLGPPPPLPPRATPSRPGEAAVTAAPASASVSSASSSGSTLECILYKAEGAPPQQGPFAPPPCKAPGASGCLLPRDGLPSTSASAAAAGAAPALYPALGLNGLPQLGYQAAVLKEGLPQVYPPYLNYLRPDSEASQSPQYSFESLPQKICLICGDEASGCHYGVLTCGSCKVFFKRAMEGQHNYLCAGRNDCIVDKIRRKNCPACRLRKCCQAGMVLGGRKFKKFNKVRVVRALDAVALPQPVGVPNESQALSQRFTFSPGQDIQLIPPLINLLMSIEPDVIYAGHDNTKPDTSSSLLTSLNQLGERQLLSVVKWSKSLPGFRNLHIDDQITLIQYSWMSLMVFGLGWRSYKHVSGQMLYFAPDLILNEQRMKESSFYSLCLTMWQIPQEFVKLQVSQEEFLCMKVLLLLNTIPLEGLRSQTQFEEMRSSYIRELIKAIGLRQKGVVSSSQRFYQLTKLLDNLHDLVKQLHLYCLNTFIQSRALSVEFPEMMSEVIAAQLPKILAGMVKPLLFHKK

[4] = biological target: T5, Prostaglandin G/H synthase 1 (Homo sapiens, UniProt P23219); assay type: functional
T5 sequence (P23219 whole entry): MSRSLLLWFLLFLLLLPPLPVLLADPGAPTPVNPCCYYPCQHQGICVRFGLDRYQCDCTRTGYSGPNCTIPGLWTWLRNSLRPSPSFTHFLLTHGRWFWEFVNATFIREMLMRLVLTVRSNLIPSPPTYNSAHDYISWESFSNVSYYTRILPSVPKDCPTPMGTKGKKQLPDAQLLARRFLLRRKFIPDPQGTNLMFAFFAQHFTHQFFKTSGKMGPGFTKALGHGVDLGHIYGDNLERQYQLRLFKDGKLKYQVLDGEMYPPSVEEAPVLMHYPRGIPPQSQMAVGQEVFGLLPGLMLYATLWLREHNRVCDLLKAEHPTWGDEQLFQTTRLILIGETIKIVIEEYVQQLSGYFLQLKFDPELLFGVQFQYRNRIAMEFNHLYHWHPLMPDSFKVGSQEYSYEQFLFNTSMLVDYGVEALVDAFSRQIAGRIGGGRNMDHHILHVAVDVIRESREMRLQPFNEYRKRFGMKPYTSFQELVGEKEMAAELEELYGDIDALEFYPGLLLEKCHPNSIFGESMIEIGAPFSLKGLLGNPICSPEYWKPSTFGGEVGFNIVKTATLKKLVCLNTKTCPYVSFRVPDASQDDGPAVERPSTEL

[5] = biological target: T5, Prostaglandin G/H synthase 1; assay type: functional; remark: listed apart in the source
Thromboxane A2 receptor [6] = biological target: T6, Thromboxane A2 receptor (Homo sapiens, UniProt P21731); assay type: functional, cell-based
T6 sequence (P21731 whole entry): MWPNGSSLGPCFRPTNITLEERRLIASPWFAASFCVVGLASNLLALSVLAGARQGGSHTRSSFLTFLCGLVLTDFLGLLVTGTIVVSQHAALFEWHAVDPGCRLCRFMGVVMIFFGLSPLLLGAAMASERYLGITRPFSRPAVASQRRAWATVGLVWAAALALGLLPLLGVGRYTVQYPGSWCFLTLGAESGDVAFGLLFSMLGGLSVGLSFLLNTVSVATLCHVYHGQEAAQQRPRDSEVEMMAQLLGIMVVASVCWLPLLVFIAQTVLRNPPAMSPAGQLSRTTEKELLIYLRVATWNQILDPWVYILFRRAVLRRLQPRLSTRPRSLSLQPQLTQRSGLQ

Thromboxane A2 receptor [7] = biological target: T6, Thromboxane A2 receptor; assay type: functional, cell-based; remark: listed apart in the source
D(4) dopamine receptor = biological target: T7, D(4) dopamine receptor (Homo sapiens, UniProt P21917)
T7 sequence (P21917 whole entry): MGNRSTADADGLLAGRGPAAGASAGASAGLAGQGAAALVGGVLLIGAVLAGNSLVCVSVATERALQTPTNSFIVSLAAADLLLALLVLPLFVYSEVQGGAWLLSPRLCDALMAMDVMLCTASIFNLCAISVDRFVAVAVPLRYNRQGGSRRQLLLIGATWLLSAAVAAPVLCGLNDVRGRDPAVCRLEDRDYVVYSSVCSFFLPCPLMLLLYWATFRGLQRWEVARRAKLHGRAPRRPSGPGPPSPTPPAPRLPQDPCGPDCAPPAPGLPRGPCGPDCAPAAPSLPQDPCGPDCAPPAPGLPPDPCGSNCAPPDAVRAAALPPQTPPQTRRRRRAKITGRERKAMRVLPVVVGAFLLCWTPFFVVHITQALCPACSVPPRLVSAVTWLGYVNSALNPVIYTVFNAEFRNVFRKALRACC

[8] = biological target: Voltage-gated inwardly rectifying potassium channel KCNH2 (Homo sapiens, UniProt Q12809); assay type: functional; conditions: read-out: AC50
Chain of Voltage-gated inwardly rectifying potassium channel KCNH2 (Q12809 whole entry): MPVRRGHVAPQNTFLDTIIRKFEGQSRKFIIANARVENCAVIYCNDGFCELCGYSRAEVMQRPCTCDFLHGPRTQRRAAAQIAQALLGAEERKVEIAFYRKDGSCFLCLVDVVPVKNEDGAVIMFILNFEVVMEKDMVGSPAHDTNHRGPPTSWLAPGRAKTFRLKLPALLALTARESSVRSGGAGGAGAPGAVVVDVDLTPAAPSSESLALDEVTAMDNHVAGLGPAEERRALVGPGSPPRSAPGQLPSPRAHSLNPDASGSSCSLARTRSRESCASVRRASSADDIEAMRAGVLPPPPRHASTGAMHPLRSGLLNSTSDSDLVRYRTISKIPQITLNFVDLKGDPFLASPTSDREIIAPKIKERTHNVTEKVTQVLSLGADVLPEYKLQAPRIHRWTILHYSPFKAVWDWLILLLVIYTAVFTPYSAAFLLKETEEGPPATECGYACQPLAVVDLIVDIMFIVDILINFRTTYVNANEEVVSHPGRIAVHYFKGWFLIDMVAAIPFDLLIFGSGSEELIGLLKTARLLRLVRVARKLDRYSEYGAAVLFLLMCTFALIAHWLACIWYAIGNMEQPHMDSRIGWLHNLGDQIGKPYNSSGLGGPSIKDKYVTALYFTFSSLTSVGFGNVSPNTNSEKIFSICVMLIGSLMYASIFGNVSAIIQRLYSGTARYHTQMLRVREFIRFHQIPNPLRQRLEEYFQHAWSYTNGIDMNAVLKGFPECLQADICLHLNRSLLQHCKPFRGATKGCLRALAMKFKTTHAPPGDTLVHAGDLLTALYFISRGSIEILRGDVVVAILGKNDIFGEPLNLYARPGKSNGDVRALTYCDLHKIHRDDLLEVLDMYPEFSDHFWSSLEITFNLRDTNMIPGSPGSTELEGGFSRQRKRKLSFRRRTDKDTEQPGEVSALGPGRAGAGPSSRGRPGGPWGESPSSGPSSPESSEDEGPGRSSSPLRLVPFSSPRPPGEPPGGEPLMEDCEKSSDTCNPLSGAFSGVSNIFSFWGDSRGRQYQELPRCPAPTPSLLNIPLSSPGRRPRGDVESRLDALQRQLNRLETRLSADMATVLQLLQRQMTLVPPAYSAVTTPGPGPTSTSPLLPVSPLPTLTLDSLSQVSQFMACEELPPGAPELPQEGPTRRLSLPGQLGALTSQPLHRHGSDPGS
Also: assay procedure not described here.

Chain of Acetylcholinesterase (P22303 whole entry): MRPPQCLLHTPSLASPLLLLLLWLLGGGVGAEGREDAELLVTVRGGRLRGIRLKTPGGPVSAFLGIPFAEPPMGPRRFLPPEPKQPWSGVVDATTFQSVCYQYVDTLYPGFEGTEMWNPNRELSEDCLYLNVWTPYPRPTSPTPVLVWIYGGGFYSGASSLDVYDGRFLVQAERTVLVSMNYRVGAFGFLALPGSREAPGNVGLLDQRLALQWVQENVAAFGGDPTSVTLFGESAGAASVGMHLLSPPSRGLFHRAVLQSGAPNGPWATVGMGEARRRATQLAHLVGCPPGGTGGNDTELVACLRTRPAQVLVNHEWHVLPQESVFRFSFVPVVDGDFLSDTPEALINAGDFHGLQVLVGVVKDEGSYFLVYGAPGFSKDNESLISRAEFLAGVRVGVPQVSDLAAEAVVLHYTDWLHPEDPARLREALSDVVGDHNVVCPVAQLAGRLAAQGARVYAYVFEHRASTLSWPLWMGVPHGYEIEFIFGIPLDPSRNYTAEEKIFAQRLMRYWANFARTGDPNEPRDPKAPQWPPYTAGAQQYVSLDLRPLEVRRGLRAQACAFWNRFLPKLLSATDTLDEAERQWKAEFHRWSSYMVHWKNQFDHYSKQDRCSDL

| Compound | AC50 (Acetylcholinesterase) | AC50 (Adenosine receptor A1) | AC50 (Adenosine receptor A3) | AC50 (Estrogen receptor) | AC50 (Prothrombin) | AC50 [1] | AC50 [2] | AC50 [3] | AC50 (Progesterone receptor) | AC50 [4] | AC50 [5] | AC50 (Thromboxane A2 receptor [6]) | AC50 (Thromboxane A2 receptor [7]) | AC50 (D(4) dopamine receptor) | AC50 [8] |
| --- | --- | --- | --- | --- | --- | --- | --- | --- | --- | --- | --- | --- | --- | --- | --- |
| C=CC[C@]1(O)CC[C@H]2[C@@H]3CCC4=CCCC[C@@H]4[C@H]3CC[C@@]21C [ALLYLESTRENOL] | > 30 µM | > 30 µM | 3.91 µM | 0.331 µM | > 30 µM | > 30 µM | > 30 µM | > 30 µM | 0.0039 µM | 25.5 µM | > 30 µM | > 30 µM | > 30 µM |  |  |
| COC(=O)[C@@H]1[C@H]2C[C@H]3c4[nH]c5ccccc5c4CCN3C[C@@H]2CC[C@@H]1O [YOHIMBINE] | > 0.3 µM |  |  |  |  |  |  |  |  |  |  |  |  | > 10 µM | 29.1 µM |

From ChEMBL document CHEMBL5291721, “A preclinical secondary pharmacology resource illuminates target-adverse drug reaction associations of marketed drugs” (Nat Commun, 2023)
